Drawing on article PMC6937582, “Human leukocyte antigen (HLA) class II peptide flanking residues tune the immunogenicity of a human tumor-derived epitope” (The Journal of Biological Chemistry, 2019), this text covers IC50 for ten sequences.

For the experiment, the target named is T1, HLA-DR1 (Homo sapiens, UniProt P01903+P01911, A100R/D57E/F55L/F60I/F76Y/I96L/L162R/M171V/P40L/Q125E/R42F/V115G/Y59C).
T1 construct: DRα*0101 (Uniprot: P01903, residues 26–207); HLA-DRβ1*0101 (Uniprot: P04229, residues 30–219); made in house
In words: HLA-DR1 competitive peptide-binding assay.

[1] abbreviates: Fig. 2B, competition with 4.5 nM biotinylated CLIP99–117 marker peptide on refolded HLA-DR1-CLIP105–117, pH 5, overnight 37 °C, ELISA read-out, triplicate, four-parameter curve fit, read-out: HLA-DR1 binding IC50.
Setting [2] is: Fig. 5 B,D,F,H,J, truncated/substituted 5T4_111–130 peptides, competition with biotinylated CLIP99–117, pH 5, overnight 37 °C, representative of two experiments in triplicate, read-out: HLA-DR1 binding (IC50).

Like-named read-outs stand apart in the source and are kept apart here. No end group written: not given here.

Consider AGDGRLRLARLALVLLGWVS [5T4_11–30], for which, under setting [1], the IC50 worked out at 535 nM.

FARRPPLAELAAANLSGSRL: the IC50 under setting [2] turned out to be 725 nM.

Where the note is “HLA-DR1 binding (IC50)”, FARRPPLAELAALALSGSRL came in with an IC50 of 144 nM.

For FARRPPLAELAALNLS, under setting [2], the IC50 was found to be 360 nM.

For the sequence FARRPPLAELAALNLSGS, the IC50 under setting [2] was determined as 103 nM.

Consider FARRPPLAELAALNLSGSRL [5T4_111–130], for which the IC50 is, setting by setting: under setting [1], 176 nM; under setting [2], 136 nM.

FARRPPLAELAALNLSRSRL: the IC50 under setting [2] is 255 nM.

Turning to LAELAALNL, the IC50 under setting [2] was 5140 nM.

Turning to PPLAELAALNLSGSRL, the IC50 under setting [2] came to 231 nM.

Regarding RRPPLAELAALNLSGSRL, the IC50 under setting [2] was found to be 417 nM.
